Laboratory results as given in ChEMBL document CHEMBL3046799, “Synthesis and in vivo anticancer and antiangiogenic effects of novel thioxothiazolidin-4-one derivatives against transplantable mouse tumor” (2010).
Calls of active or inactive are those of the source. The rule behind the calls is not given here.

Key:
EAT [1] = test: Antiangiogenic activity in Mus musculus (mouse) EAT xenografted in Mus musculus (mouse) assessed as reduction of vascularization at 100 mg/kg, ip administered day 7 to 11 post tumor implantation measured on day 12 relative to control; format: functional, organism-based; design: dose 100 mg/kg
[2] = (§1) Antitumor activity against Mus musculus (mouse) EAT xenografted in Mus musculus (mouse) assessed as decrease in tumor volume at 100 mg/kg, ip administered day 7 to 11 post tumor implantation measured on day 12 (reference value: 7.6 +/- 0.9 ml); format: functional; details: route intraperitoneal
[3] = Antitumor activity against Mus musculus (mouse) EAT xenografted in Mus musculus (mouse) assessed as increase in life span at 100 mg/kg, ip administered day 7 to 11 post tumor implantation measured up to 28 days relative to control; format: functional; details: route intraperitoneal
EAT [4] = test: Antitumor activity against Mus musculus (mouse) EAT xenografted in Mus musculus (mouse) assessed as decrease in body weight at 100 mg/kg, ip administered day 7 to 11 post tumor implantation measured on day 12 relative to control
EAT [5] = test: as §1; format: functional

Row | Compound | Activity (EAT [1]) | Activity [2] [mL] | Activity [3] [%] | Activity (EAT [4]) | Activity (EAT [5])
1 | COc1ccc(CCNC(=O)CN2C(=O)/C(=C/c3ccc(-c4ccc(Cl)cc4)o3)SC2=S)cc1 | Active | 5.7 | 37.5 | Active | 
2 | CCCCNC(=O)CN1C(=O)/C(=C/c2ccc(-c3ccc(Cl)cc3)o2)SC1=S | Active |  | 12.5 | Active | 
3 | COc1ccc(Cn2nc(C3CC3)cc2NC(=O)CN2C(=O)/C(=C/c3ccc(-c4ccc(Cl)cc4)o3)SC2=S)cc1 | Active | 4.8 | 56.25 | Active | 
4 | O=C(CN1C(=O)/C(=C/c2ccc(-c3ccc(Cl)cc3)o2)SC1=S)Nc1ccon1 | Active |  | 18.25 | Active | Active
5 | COC(=O)C(Cc1ccc(O)cc1)NC(=O)CN1C(=O)/C(=C/c2ccc(-c3ccc(Cl)cc3)o2)SC1=S (configuration not stated) | Active |  | 25 | Active | Active
6 | O=C(CN1C(=O)/C(=C/c2ccc(-c3ccc(Cl)cc3)o2)SC1=S)N1CCN(c2ccccc2F)CC1 | Active |  | 31.25 | Active | Active
7 | Cc1nc(-c2ccc(NC(=O)CN3C(=O)/C(=C/c4ccc(-c5ccc(Cl)cc5)o4)SC3=S)cc2)no1 | Active | 5.2 | 43.75 | Active | 
